# Experimental data: patent US20210284952A1, “METHODS OF APPLYING ACETATE TOXICITY AND INDUCING ACETATE UPTAKE IN MICROALGAE CULTURES” (HELIAE DEVELOPMENT LLC, priority 2016, published 2021)
# Read-outs that look alike come from different tables or passages of the source.
# Key:
# [1] = tested on: Aurantiochytrium sp. HS399
# Method: Cultures of Aurantiochytrium sp. […] 100 mL volume cultures were prepared in 250 mL flasks, and cultured at a pH of 7.0, temperature of 27° C., a shaking frequency of 180 rpm, in the dark for 5 days (120 hours). The cultures were inoculated at the same cell density.
# [2] = tested on: Aurantiochytrium sp. HS399; conditions: for Cell Dry Weight of Aurantiochytrium: 2 g/L Na Acetate
# Method: This experiment was conducted to determine the effect of different culture pH levels on the growth of Aurantiochytrium sp. HS399. Duplicate 100 ml flasks of axenic cultures of Aurantiochytrium were adjusted to initial pH levels of 4, 5, 6, 7, and 8. The culture pH was adjusted using either hydrochloric acid (HCl) or potassium hydroxide (KOH). […] Samples of the flask culture were taken initially and every other day over a five-day period (120 hours).
# [3] = tested on: Chlorella sp. HS26; conditions: for Cell Dry Weight of Chlorella: 2.4 g/L
# Method: This experiment was conducted to determine the effect of different culture medium pH levels on the growth of Chlorella sp. HS26 at a constant culture medium acetate concentration. Duplicate 100 ml flasks of axenic cultures of Chlorella were adjusted to initial pH levels of 2.5, 3.5, 4.5, 5.5, 6.5, 7.0, 7.5, 8.5, 9.5, and 10.5. The culture pH was adjusted using either hydrochloric acid (HCl) or sodium hydroxide (NaOH). […] Samples of the flask culture were taken initially and every other day over a six day period (144 hours).
compound,measurement,setting,value
"CC(=O)[O-].[Na+] [Sodium Acetate, sodium acetate]",growth,[1]; concentrations of sodium acetate below 100 g/L,grew well
same,Cell Dry Weight of Aurantiochytrium,"[1]; sodium acetate 5 g/L, 0 h",2.7 g/L
same,Cell Dry Weight of Aurantiochytrium,"[1]; sodium acetate 5 g/L, 24 h",8.01 g/L
same,Cell Dry Weight of Aurantiochytrium,"[1]; sodium acetate 5 g/L, 40 h",8.13 g/L
same,Cell Dry Weight of Aurantiochytrium,"[1]; sodium acetate 5 g/L, 72 h",7.49 g/L
same,Cell Dry Weight of Aurantiochytrium,"[1]; sodium acetate 5 g/L, 96 h",7.38 g/L
same,Cell Dry Weight of Aurantiochytrium,"[1]; sodium acetate 5 g/L, 120 h",7.6 g/L
same,Cell Dry Weight of Aurantiochytrium,"[1]; sodium acetate 10 g/L, 0 h",2.7 g/L
same,Cell Dry Weight of Aurantiochytrium,"[1]; sodium acetate 10 g/L, 24 h",8.29 g/L
same,Cell Dry Weight of Aurantiochytrium,"[1]; sodium acetate 10 g/L, 40 h",9.69 g/L
same,Cell Dry Weight of Aurantiochytrium,"[1]; sodium acetate 10 g/L, 72 h",10.35 g/L
same,Cell Dry Weight of Aurantiochytrium,"[1]; sodium acetate 10 g/L, 96 h",10 g/L
same,Cell Dry Weight of Aurantiochytrium,"[1]; sodium acetate 10 g/L, 120 h",10.9 g/L
same,Cell Dry Weight of Aurantiochytrium,"[1]; sodium acetate 20 g/L, 0 h",2.7 g/L
same,Cell Dry Weight of Aurantiochytrium,"[1]; sodium acetate 20 g/L, 24 h",7.35 g/L
same,Cell Dry Weight of Aurantiochytrium,"[1]; sodium acetate 20 g/L, 40 h",10.45 g/L
same,Cell Dry Weight of Aurantiochytrium,"[1]; sodium acetate 20 g/L, 72 h",13.7 g/L
same,Cell Dry Weight of Aurantiochytrium,"[1]; sodium acetate 20 g/L, 96 h",13.11 g/L
same,Cell Dry Weight of Aurantiochytrium,"[1]; sodium acetate 20 g/L, 120 h",13.55 g/L
same,Cell Dry Weight of Aurantiochytrium,"[1]; sodium acetate 40 g/L, 0 h",2.7 g/L
same,Cell Dry Weight of Aurantiochytrium,"[1]; sodium acetate 40 g/L, 24 h",7.06 g/L
same,Cell Dry Weight of Aurantiochytrium,"[1]; sodium acetate 40 g/L, 40 h",11.84 g/L
same,Cell Dry Weight of Aurantiochytrium,"[1]; sodium acetate 40 g/L, 72 h",15.78 g/L
same,Cell Dry Weight of Aurantiochytrium,"[1]; sodium acetate 40 g/L, 96 h",18.9 g/L
same,Cell Dry Weight of Aurantiochytrium,"[1]; sodium acetate 40 g/L, 120 h",19.65 g/L
same,Cell Dry Weight of Aurantiochytrium,"[1]; sodium acetate 100 g/L, 0 h",2.7 g/L
same,Cell Dry Weight of Aurantiochytrium,"[1]; sodium acetate 100 g/L, 24 h",1.7 g/L
same,Cell Dry Weight of Aurantiochytrium,"[1]; sodium acetate 100 g/L, 40 h",0.7 g/L
same,acetate concentration tolerance,"[1]; sodium acetate in the culture, pH 7.0",around 100 g/L
same,Cell Dry Weight of Aurantiochytrium,"[2]; pH 4, 0 h",0.28 g/L
same,Cell Dry Weight of Aurantiochytrium,"[2]; pH 4, 24 h",1.1 g/L
same,Cell Dry Weight of Aurantiochytrium,"[2]; pH 4, 48 h",0.79 g/L
same,Cell Dry Weight of Aurantiochytrium,"[2]; pH 4, 72 h",0.51 g/L
same,Cell Dry Weight of Aurantiochytrium,"[2]; pH 5, 0 h",0.25 g/L
same,Cell Dry Weight of Aurantiochytrium,"[2]; pH 5, 24 h",5.15 + g/L
same,Cell Dry Weight of Aurantiochytrium,"[2]; pH 5, 48 h",15.2 g/L
same,Cell Dry Weight of Aurantiochytrium,"[2]; pH 5, 72 h",19.4 g/L
same,Cell Dry Weight of Aurantiochytrium,"[2]; pH 6, 0 h",0.18 g/L
same,Cell Dry Weight of Aurantiochytrium,"[2]; pH 6, 24 h",5.1 g/L
same,Cell Dry Weight of Aurantiochytrium,"[2]; pH 6, 48 h",11.55 g/L
same,Cell Dry Weight of Aurantiochytrium,"[2]; pH 6, 72 h",16 g/L
same,Cell Dry Weight of Aurantiochytrium,"[2]; pH 7, 0 h",0.3 g/L
same,Cell Dry Weight of Aurantiochytrium,"[2]; pH 7, 24 h",12.25 g/L
same,Cell Dry Weight of Aurantiochytrium,"[2]; pH 7, 48 h",10.8 g/L
same,Cell Dry Weight of Aurantiochytrium,"[2]; pH 7, 72 h",15.7 g/L
same,Cell Dry Weight of Aurantiochytrium,"[2]; pH 8, 0 h",0.25 g/L
same,Cell Dry Weight of Aurantiochytrium,"[2]; pH 8, 24 h",9.1 g/L
same,Cell Dry Weight of Aurantiochytrium,"[2]; pH 8, 48 h",8.95 g/L
same,Cell Dry Weight of Aurantiochytrium,"[2]; pH 8, 72 h",12.6 g/L
same,cell dry weight over time,"[2]; 2 g/L sodium acetate, pH of 4",did not increase over time
same,cell dry weight over time,"[3]; 2.4 g/L sodium acetate, pH of 5.5 or lower",did not increase over time
same,Cell Dry Weight of Chlorella,"[3]; initial pH 2.5, 0 h",0.6 g/L
same,Cell Dry Weight of Chlorella,"[3]; initial pH 2.5, 24 h",0.5 g/L
same,Cell Dry Weight of Chlorella,"[3]; initial pH 2.5, 48 h",0.5 g/L
same,Cell Dry Weight of Chlorella,"[3]; initial pH 3.5, 0 h",0.6 g/L
same,Cell Dry Weight of Chlorella,"[3]; initial pH 3.5, 24 h",0.5 g/L
same,Cell Dry Weight of Chlorella,"[3]; initial pH 3.5, 48 h",0.5 g/L
same,Cell Dry Weight of Chlorella,"[3]; initial pH 4.5, 0 h",0.6 g/L
same,Cell Dry Weight of Chlorella,"[3]; initial pH 4.5, 24 h",0.5 g/L
same,Cell Dry Weight of Chlorella,"[3]; initial pH 4.5, 48 h",0.4 g/L
same,Cell Dry Weight of Chlorella,"[3]; initial pH 5.5, 0 h",0.6 g/L
same,Cell Dry Weight of Chlorella,"[3]; initial pH 5.5, 24 h",0.6 g/L
same,Cell Dry Weight of Chlorella,"[3]; initial pH 5.5, 48 h",0.6 g/L
same,Cell Dry Weight of Chlorella,"[3]; initial pH 5.5, 96 h",0.4 g/L
